Literature values, collected in US11154491B2, “Use of Undaria extract to reduce signs of skin aging” (Kimberly-Clark Worldwide, Inc., priority 2014, dated 2021).

System: 3T3-L1 cells
Details: literature

Fucoidan
adipogenesis: inhibit adipogenesis
